Experimental findings from patent EP0876161B1, “CONTRAST MEDIA” (priority 1996, dated 1997) are described below.

Series [1] can be described thus: Osmolality of the formulated complex solution. The format is physicochemical.
A further series relates to mice. The series can be described thus: Maximum tolerated dose (MTD) in mice of formulated complex solution. The format is in vivo. Particulars: complex given as the formulated solution.
The nature of series [2]: Osmolality determined in water, compared to the EGTA complex. The format is physicochemical. Particulars: concentration 41 mM.

As for “Na4[(W3SO3)2(MeO-PDTA)3] [Na4[(W3SO3)2(MeO-PDTA)3] . 7H2O]”, in series [1] (140mM solution, pH 6.5), the osmolality stood at 563 mmol/kg.
On to “Na4[(W3SO3)2(OBETA)3] [Na4[(W3SO3)2(OBETA)3].10H2O]”, for which, in the series with mice, the “maximum tolerated dose (MTD)” value is -4.35 mmoles complex/kg. Further, the osmolality in series [1] (107 mM solution, pH 7.03) amounted to 498 mmol/kg.
In the case of “Na4[(W3S3O)2(EGTA)3] [Na4[(W3S3O)2(EGTA)3] .6H2O]”, the “maximum tolerated dose (MTD)” value in the series on mice is listed as approximately 3.95 mmoles complex/kg. The substance also returned an osmolality in series [1] (121 mM solution, pH 6.95) of 517 mmol/kg.
As for “Na4[(W3SO3)2(PDTA)3] [Na4[(W3SO3)2(PDTA)3] 11H2O]”, the “maximum tolerated dose (MTD)” value in the series on mice was more than 6.5 mmoles complex/kg. This substance displayed an osmolality in series [1] (79mM solution, pH 6.6) of 311 mmol/kg.
“Na4[(W3SO3)2(BDTA)3] [Na4[(W3SO3)2(BDTA)3].12H2O]”: in the series on mice, the “maximum tolerated dose (MTD)” value is ~ 2.55 mmoles complex/kg. The substance further returned an osmolality in series [1] (120mM solution, pH 7.4) of 459 mmol/kg.
For the substance (NMG)4[(W3SO3)2(HO-PDTA)3], the “maximum tolerated dose (MTD)” value with mice is approximately 2.17 mmoles complex/kg. This substance had an osmolality in series [1] (153mM solution, pH 6.98) of 499 mmol/kg.
Regarding “Na4[(W3SO3)2(EGTA)3] [Na4[(W3SO3)2(EGTA)3].10H2O]”, the “maximum tolerated dose (MTD)” value with mice is approximately 7.75 mmoles complex/kg. The osmolality in series [2] came out at 199 mmol/kg; in series [1] (168 mM solution, pH 6.65), 685 mmol/kg.
